# “And” between values parts separate entries of the source, which are not always exact repeats. Identical values can stand only once. Toxic doses and inconclusive results are not listed.
# System: BDF1 mice, P388 leukemia ip, median survival T/C
# Experiment: NCI In Vivo Anticancer Drug Screen. Data for tumor model P388 Leukemia (intraperitoneal) in B6D2F1 (BDF1) mice
# Conditions: endpoint: median survival time, higher = longer survival
# In short: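 Steps: implant the tumour, treat one group with compound and another with vehicle, record survival, then divide treated by control.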
# [1] = dose: 25.0 mg/kg/injection, schedule: Q04DX003 (ip), vehicle: saline
# [2] = dose: 50.0 mg/kg/injection, schedule: Q04DX003 (ip), vehicle: saline
# [3] = dose: 100.0 mg/kg/injection, schedule: Q01DX009 (ip), vehicle: saline with Tween-80
# [4] = dose: 100.0 mg/kg/injection, schedule: Q04DX003 (ip), vehicle: saline with Tween-80
# [5] = dose: 200.0 mg/kg/injection, schedule: Q04DX003 (ip), vehicle: saline with Tween-80
# [6] = dose: 400.0 mg/kg/injection, schedule: Q04DX003 (ip), vehicle: saline with Tween-80
# [7] = dose: 50.0 mg/kg/injection, schedule: Q01DX009 (ip), vehicle: saline with Tween-80
structure (smiles),measurement,setting,value
Cc1cc(C(C)(C)CC(C)(C)C)ccc1O,T/C,"dose: 88.0 mg/kg/injection, schedule: Q01DX009 (sc), vehicle: olive oil, sesame oil, peanut oil",100 % of control
same,T/C,"dose: 100.0 mg/kg/injection, schedule: Q01DX009 (sc), vehicle: olive oil, sesame oil, peanut oil",100 % of control
same,T/C,"dose: 100.0 mg/kg/injection, schedule: Q04DX003 (sc), vehicle: olive oil, sesame oil, peanut oil",91 % of control
same,T/C,"dose: 133.0 mg/kg/injection, schedule: Q01DX009 (sc), vehicle: olive oil, sesame oil, peanut oil",92 % of control
same,T/C,"dose: 200.0 mg/kg/injection, schedule: Q01DX009 (sc), vehicle: olive oil, sesame oil, peanut oil",86 % of control
same,T/C,"dose: 200.0 mg/kg/injection, schedule: Q04DX003 (sc), vehicle: olive oil, sesame oil, peanut oil",100 % of control
same,T/C,"dose: 300.0 mg/kg/injection, schedule: Q01DX009 (sc), vehicle: olive oil, sesame oil, peanut oil",106 % of control
same,T/C,"dose: 400.0 mg/kg/injection, schedule: Q01DX009 (sc), vehicle: olive oil, sesame oil, peanut oil",110 % of control
same,T/C,"dose: 400.0 mg/kg/injection, schedule: Q04DX003 (sc), vehicle: olive oil, sesame oil, peanut oil",104 % of control
[NH-]C(Cc1ccc(O)cc1)C(=O)O.[NH-]C(Cc1ccc(O)cc1)C(=O)O.[Ni+2] (stereo not given),T/C,"dose: 2.0 mg/kg/injection, schedule: Q01DX009 (ip), vehicle: saline",111 % of control
same,T/C,"dose: 4.0 mg/kg/injection, schedule: Q01DX009 (ip), vehicle: saline",107 % of control
same,T/C,"dose: 8.0 mg/kg/injection, schedule: Q01DX009 (ip), vehicle: saline",121 % of control
same,T/C,[1],112 % of control
same,T/C,[2],114 % of control
CCN(C(=O)Nc1ccccc1)c1ccccc1,T/C,"dose: 100.0 mg/kg/injection, schedule: Q01DX001 (ip), vehicle: saline with Tween-80",104 % of control
same,T/C,"dose: 200.0 mg/kg/injection, schedule: Q01DX001 (ip), vehicle: saline with Tween-80",90 % of control
same,T/C,"dose: 400.0 mg/kg/injection, schedule: Q01DX001 (ip), vehicle: saline with Tween-80",95 % of control
CC#CCOCC(CCl)OC(=O)Nc1ccccc1 (stereo not given),T/C,[3],100 % of control
same,T/C,[4],120 % of control
same,T/C,"dose: 200.0 mg/kg/injection, schedule: Q01DX009 (ip), vehicle: saline with Tween-80",112 % of control
same,T/C,[5],110 % of control
same,T/C,"dose: 400.0 mg/kg/injection, schedule: Q01DX009 (ip), vehicle: saline with Tween-80",108 % of control
same,T/C,[6],100 % of control
CCCCCCC(=O)/C=C/c1cc(OC)ccc1OC,T/C,"dose: 12.5 mg/kg/injection, schedule: Q01DX009 (ip), vehicle: saline with Tween-80",100 % of control
same,T/C,"dose: 25.0 mg/kg/injection, schedule: Q01DX009 (ip), vehicle: saline with Tween-80",95 % of control
same,T/C,[7],104 % of control
same,T/C,[3],104 % of control
Cc1ccc(NC(=O)c2ccccc2C(=O)O)cc1C,T/C,[4],118 % of control
same,T/C,[5],100 % of control
same,T/C,[6],118 % of control
Cc1cc(C(C)(CC(C)C)c2ccc(O)c(C)c2)ccc1O,T/C,"dose: 100.0 mg/kg/injection, schedule: Q01DX009 (ip), vehicle: gum acacia",120 % of control
same,T/C,"dose: 200.0 mg/kg/injection, schedule: Q01DX009 (ip), vehicle: gum acacia",108 % of control
O=C(O)CNC(=O)/C(=C\c1[nH]c(=O)[nH]c(=O)c1Br)NC(=O)c1ccccc1,T/C,[4],90 % of control
same,T/C,[5],104 % of control
same,T/C,[6],100 % of control
O=COC1CC2CC1C1CCCC21 (stereo not given),T/C,[7],122 % of control
same,T/C,[2],100 % of control
same,T/C,[3],109 % of control
same,T/C,"dose: 100.0 mg/kg/injection, schedule: Q04DX003 (ip), vehicle: saline",96 % of control
same,T/C,"dose: 200.0 mg/kg/injection, schedule: Q04DX003 (ip), vehicle: saline",100 % of control
Cc1cc2[nH]c(=O)c(=O)[nH]c2cc1C,T/C,"dose: 10.0 mg/kg/injection, schedule: Q01DX009 (ip), vehicle: Klucel (hydroxypropylcellulose) (HPC)",109 % of control
same,T/C,"dose: 20.0 mg/kg/injection, schedule: Q01DX009 (ip), vehicle: Klucel (hydroxypropylcellulose) (HPC)",109 % of control
same,T/C,"dose: 40.0 mg/kg/injection, schedule: Q01DX009 (ip), vehicle: Klucel (hydroxypropylcellulose) (HPC)",100 % of control
same,T/C,"dose: 75.0 mg/kg/injection, schedule: Q01DX009 (ip), vehicle: Klucel (hydroxypropylcellulose) (HPC)",86 % of control
O=c1[nH]nc(CF)c(=O)[nH]1,T/C,"dose: 3.0 mg/kg/injection, schedule: Q01DX009 (ip), vehicle: saline",100 % of control and 109 % of control
same,T/C,"dose: 6.0 mg/kg/injection, schedule: Q01DX009 (ip), vehicle: saline",118 % of control
same,T/C,"dose: 12.0 mg/kg/injection, schedule: Q01DX009 (ip), vehicle: saline",150 % of control
same,T/C,"dose: 24.0 mg/kg/injection, schedule: Q01DX009 (ip), vehicle: saline",154 % of control and 172 % of control
CNC(C)c1ccc(C)cc1 (stereo not given),T/C,"dose: 6.25 mg/kg/injection, schedule: Q04DX003 (ip), vehicle: saline",100 % of control
same,T/C,"dose: 12.5 mg/kg/injection, schedule: Q04DX003 (ip), vehicle: saline",104 % of control
same,T/C,[1],100 % of control
CC1(C)C=C(C(Br)c2cccc(Br)c2)C(=O)c2ccccc21 (stereo not given),T/C,"dose: 100.0 mg/kg/injection, schedule: Q01DX009 (ip), vehicle: Klucel (hydroxypropylcellulose) (HPC)",120 % of control
same,T/C,"dose: 100.0 mg/kg/injection, schedule: Q04DX003 (ip), vehicle: Klucel (hydroxypropylcellulose) (HPC)",90 % of control
same,T/C,"dose: 200.0 mg/kg/injection, schedule: Q01DX009 (ip), vehicle: Klucel (hydroxypropylcellulose) (HPC)",110 % of control
same,T/C,"dose: 200.0 mg/kg/injection, schedule: Q04DX003 (ip), vehicle: Klucel (hydroxypropylcellulose) (HPC)",95 % of control
same,T/C,"dose: 400.0 mg/kg/injection, schedule: Q01DX009 (ip), vehicle: Klucel (hydroxypropylcellulose) (HPC)",110 % of control
same,T/C,"dose: 400.0 mg/kg/injection, schedule: Q04DX003 (ip), vehicle: Klucel (hydroxypropylcellulose) (HPC)",109 % of control
CC1(C)N=C(N)N=C(N)N1c1cccc(OCCOc2cccc(NC(=O)CBr)c2)c1,T/C,"dose: 5.0 mg/kg/injection, schedule: Q01DX009 (ip), vehicle: saline",90 % of control and 100 % of control
same,T/C,"dose: 5.0 mg/kg/injection, schedule: Q04DX003 (ip), vehicle: saline",100 % of control
same,T/C,"dose: 10.0 mg/kg/injection, schedule: Q01DX009 (ip), vehicle: saline",95 % of control and 100 % of control
same,T/C,"dose: 10.0 mg/kg/injection, schedule: Q04DX003 (ip), vehicle: saline",100 % of control
same,T/C,"dose: 13.0 mg/kg/injection, schedule: Q01DX009 (ip), vehicle: saline",104 % of control and 110 % of control
same,T/C,"dose: 20.0 mg/kg/injection, schedule: Q04DX003 (ip), vehicle: saline",100 % of control
same,T/C,"dose: 45.0 mg/kg/injection, schedule: Q01DX009 (ip), vehicle: saline",100 % of control
C=C1C(=O)OC2/C=C(\CO)C(OC(C)=O)CC(O)/C(C)=C/C(OC(=O)C(C)CC)C12 (stereo not given),T/C,"dose: 6.25 mg/kg/injection, schedule: Q01DX009 (ip), vehicle: Klucel (hydroxypropylcellulose) (HPC)",110 % of control
same,T/C,"dose: 12.5 mg/kg/injection, schedule: Q01DX009 (ip), vehicle: Klucel (hydroxypropylcellulose) (HPC)",108 % of control
same,T/C,"dose: 25.0 mg/kg/injection, schedule: Q01DX009 (ip), vehicle: Klucel (hydroxypropylcellulose) (HPC)",119 % of control
same,T/C,"dose: 50.0 mg/kg/injection, schedule: Q01DX009 (ip), vehicle: Klucel (hydroxypropylcellulose) (HPC)",117 % of control
CCCCCCCC(=O)OCC(=O)[C@]1(O)Cc2c(O)c3c(c(O)c2[C@@H](OC2CC(N)C(O)C(C)O2)C1)C(=O)c1c(OC)cccc1C3=O (stereo not given in full),T/C,"dose: 0.5 mg/kg/injection, schedule: Q01DX009 (ip), vehicle: water",204 % of control
same,T/C,"dose: 1.0 mg/kg/injection, schedule: Q01DX009 (ip), vehicle: water",254 % of control and 190 % of control
same,T/C,"dose: 1.0 mg/kg/injection, schedule: Q04DX003 (ip), vehicle: water",207 % of control
same,T/C,"dose: 2.0 mg/kg/injection, schedule: Q01DX009 (ip), vehicle: water",231 % of control and 311 % of control
same,T/C,"dose: 2.0 mg/kg/injection, schedule: Q04DX003 (ip), vehicle: water",264 % of control
same,T/C,"dose: 2.5 mg/kg/injection, schedule: Q04DX003 (ip), vehicle: water",116 % of control
same,T/C,"dose: 2.88 mg/kg/injection, schedule: Q04DX003 (ip), vehicle: water",215 % of control
same,T/C,"dose: 4.0 mg/kg/injection, schedule: Q01DX009 (ip), vehicle: water",90 % of control
same,T/C,"dose: 4.0 mg/kg/injection, schedule: Q04DX003 (ip), vehicle: water",271 % of control
same,T/C,"dose: 4.8 mg/kg/injection, schedule: Q04DX003 (ip), vehicle: water",339 % of control
same,T/C,"dose: 10.0 mg/kg/injection, schedule: Q04DX003 (ip), vehicle: water",174 % of control
same,T/C,"dose: 40.0 mg/kg/injection, schedule: Q04DX003 (ip), vehicle: water",100 % of control

# From PubChem BioAssay AID328 (DTP/NCI, 2004)
